According to ChEMBL document CHEMBL1201862, “PubChem BioAssay data set” (2004):
Calls of active or inactive are those of the source. Cut-off read from the data, not from the text of the source, for most assays here: actives have a measured EC50 and inactives only a lower limit.

How the values were obtained:
[1] = target: T1, Heat shock factor protein 1 (Mus musculus, UniProt P38532); assay: enhancement of HSF1-driven luciferase signal – cell-based, NIH3T3, luminescence, dose retest, confirmation (AID 435004); type: functional;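 note: stress induced by proteasome inhibitor MG132 added 30 min after compound; luciferase reporter driven by HSF1 response element in NIH3T3 cells; actives raise luminescence as potentiators of the MG132 stress response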
T1 sequence (P38532 whole entry): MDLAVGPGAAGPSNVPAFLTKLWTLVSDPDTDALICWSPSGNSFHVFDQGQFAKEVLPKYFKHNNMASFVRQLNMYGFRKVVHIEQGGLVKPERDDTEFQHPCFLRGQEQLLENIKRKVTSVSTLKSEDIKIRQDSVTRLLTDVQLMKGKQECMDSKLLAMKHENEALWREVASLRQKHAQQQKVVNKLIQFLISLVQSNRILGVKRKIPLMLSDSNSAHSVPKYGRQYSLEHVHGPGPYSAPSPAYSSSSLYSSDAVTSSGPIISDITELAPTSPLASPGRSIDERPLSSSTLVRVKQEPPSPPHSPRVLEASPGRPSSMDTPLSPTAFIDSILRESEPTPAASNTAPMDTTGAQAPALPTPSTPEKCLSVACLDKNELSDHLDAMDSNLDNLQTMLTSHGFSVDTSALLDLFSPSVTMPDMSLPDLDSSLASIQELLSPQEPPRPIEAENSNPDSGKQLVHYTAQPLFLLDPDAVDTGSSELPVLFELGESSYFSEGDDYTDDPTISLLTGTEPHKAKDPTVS

Streptococcus = assay: GAS UMAA2166 growth inhibition – luminescence, BacTiterGlo, counter-screen for streptokinase expression inhibitor project, dose response (AID 1915); type: functional, organism-based;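 note: potency for reduction of bacterial viability or growth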
Streptokinase A = target: T2, Streptokinase A (Streptococcus pyogenes serotype M1, UniProt P10520); assay: viability-normalized secreted streptokinase activity reduction – plasminogen activation absorbance, OD405, dose response (AID 1914); type: functional, Streptococcus pyogenes M1 GAS;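 note: secreted streptokinase activity via plasminogen activation per viability signal from cell pellet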
T2 sequence (P10520 whole entry): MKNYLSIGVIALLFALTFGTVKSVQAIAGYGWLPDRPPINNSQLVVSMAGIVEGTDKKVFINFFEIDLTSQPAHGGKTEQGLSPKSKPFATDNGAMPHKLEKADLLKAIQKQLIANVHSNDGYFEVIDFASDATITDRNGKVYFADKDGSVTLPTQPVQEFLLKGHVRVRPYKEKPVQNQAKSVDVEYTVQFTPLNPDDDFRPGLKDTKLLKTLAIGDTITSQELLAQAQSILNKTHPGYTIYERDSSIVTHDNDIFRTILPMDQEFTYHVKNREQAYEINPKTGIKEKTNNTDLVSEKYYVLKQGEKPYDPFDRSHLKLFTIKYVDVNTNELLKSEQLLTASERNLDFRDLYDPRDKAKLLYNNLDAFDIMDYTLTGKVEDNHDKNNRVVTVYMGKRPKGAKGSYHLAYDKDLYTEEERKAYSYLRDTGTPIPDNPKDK

[2] = tested on: Streptococcus sp. 'group A'; assay: Streptococcus pyogenes SK(-)GAS viability under kanamycin – luminescence, BacTiterGlo, confirmation, counter-screen for streptokinase expression inhibitor project, dose response (AID 1900); type: functional, organism-based
cells [3] = type: functional, cell-based
cells [4] = type: functional, cell-based; remark: listed apart in the source
[5] = target: Luciferin 4-monooxygenase (Photinus pyralis, UniProt P08659); assay: inhibition of purified Photinus pyralis luciferase – biochemical, luminescence, dose response (AID 1891)
[6] = target: T1, Heat shock factor protein 1; assay: decrease of HSF1-responsive luciferase luminescence – cell-based, NIH3T3, dose retest, confirmation (AID 2382); type: functional;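 note: NIH3T3 fibroblasts with HSF1-driven luciferase reporter stressed by proteasome inhibitor MG132; luminescence from HSF1-driven luciferase expression after 8 hours of MG132 stress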
[7] = Luminescence Cell-Based Dose Confirmation HTS to Identify Inhibitors of Platelet Dense Granule Release. [Related pubchem assays: 1663 (Primary HTS), 1678 (Summary of Project)]; type: functional
BJ [8] = assay: cells; type: functional, cell-based; details: Homo sapiens
BJ [9] = assay: BJ-TERT-LT-ST fibroblast viability loss – cell-based, RAS-independent, luminescence, dose response (AID 1935); type: functional; details: Homo sapiens;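 note: BJ fibroblasts immortalized with TERT plus LT and ST oncogenes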
[10] = DRD fibroblast viability loss – cell-based, non-viral oncogenic, luminescence, dose response (AID 1934); type: functional; details: Homo sapiens
BJ [11] = assay: BJ-TERT fibroblast viability loss – cell-based, RAS-independent, luminescence, dose response (AID 1933); type: functional; details: Homo sapiens
[12] = target: Induced myeloid leukemia cell differentiation protein Mcl-1 (Homo sapiens, UniProt Q07820); type: functional
Vero = assay: cells; type: functional; details: Chlorocebus sabaeus
[13] = target: T3, Polyadenylate-binding protein 1 (Homo sapiens, UniProt P11940); assay: MLLE domain peptide-binding blockers, IC50 – biochemical, fluorescence polarization, FITC-PAM2 peptide, dose response (AID 602259); type: functional; details: read-out: IC50_Mean
[14] = target: T3, Polyadenylate-binding protein 1; assay: MLLE binding blockers, Cy5 peptide tracer – biochemical, fluorescence polarization, Cy5-PAM2 peptide, secondary, miRNA deadenylation inhibitor project, dose response (AID 602260); type: functional; details: read-out: IC50_Mean
[15] = Trypanosoma cruzi growth suppression in host cells – NIH3T3 host cells, beta-gal luminescence, confirmation (AID 2044); type: functional, cell-based;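 note: intracellular parasites grown in NIH/3T3 mouse fibroblasts as host cells; luminescent beta-galactosidase reporter signal from transgenic T. cruzi replicating inside host cells; inhibitors lower the luminescence signal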
[16] = NIH3T3 cell viability loss – ATP luminescence, mouse fibroblasts, counter-screen, dose response (AID 2010); type: functional, cell-based;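 note: cells exposed to compound for about 90 hours before reading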

Luciferin 4-monooxygenase, sequence (P08659 whole entry): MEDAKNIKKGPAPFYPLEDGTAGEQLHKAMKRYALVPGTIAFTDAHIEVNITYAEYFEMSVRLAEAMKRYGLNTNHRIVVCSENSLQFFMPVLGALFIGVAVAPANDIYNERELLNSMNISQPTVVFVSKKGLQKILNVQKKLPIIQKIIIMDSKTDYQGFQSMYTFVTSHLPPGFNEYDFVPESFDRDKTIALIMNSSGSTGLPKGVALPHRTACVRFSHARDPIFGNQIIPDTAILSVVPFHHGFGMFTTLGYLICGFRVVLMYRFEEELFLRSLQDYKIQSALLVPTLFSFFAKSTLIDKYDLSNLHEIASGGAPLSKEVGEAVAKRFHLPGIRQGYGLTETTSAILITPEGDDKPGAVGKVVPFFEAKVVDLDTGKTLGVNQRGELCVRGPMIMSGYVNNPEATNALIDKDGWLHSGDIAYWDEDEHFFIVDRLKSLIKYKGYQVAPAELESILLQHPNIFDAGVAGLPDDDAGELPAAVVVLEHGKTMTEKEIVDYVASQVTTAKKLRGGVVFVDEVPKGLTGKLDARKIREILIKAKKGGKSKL
T3 sequence (P11940 whole entry, the tested form may be a part): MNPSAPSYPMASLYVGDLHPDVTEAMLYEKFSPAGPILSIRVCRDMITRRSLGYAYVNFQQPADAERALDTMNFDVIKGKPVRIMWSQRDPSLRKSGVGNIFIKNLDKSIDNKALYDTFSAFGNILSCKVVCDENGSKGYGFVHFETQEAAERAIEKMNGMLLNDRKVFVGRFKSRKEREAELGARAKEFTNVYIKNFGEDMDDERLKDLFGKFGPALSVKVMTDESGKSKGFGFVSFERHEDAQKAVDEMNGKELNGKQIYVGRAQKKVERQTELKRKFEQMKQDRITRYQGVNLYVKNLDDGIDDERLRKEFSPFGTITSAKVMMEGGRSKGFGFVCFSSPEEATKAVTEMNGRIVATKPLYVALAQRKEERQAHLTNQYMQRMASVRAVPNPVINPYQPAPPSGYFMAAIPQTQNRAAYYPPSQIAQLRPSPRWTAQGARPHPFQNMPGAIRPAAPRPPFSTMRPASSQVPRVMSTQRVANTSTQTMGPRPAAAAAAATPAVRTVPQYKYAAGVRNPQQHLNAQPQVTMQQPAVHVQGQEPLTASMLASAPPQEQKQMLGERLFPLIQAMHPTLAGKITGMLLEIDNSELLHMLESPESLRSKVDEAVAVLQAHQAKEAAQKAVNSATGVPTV
Induced myeloid leukemia cell differentiation protein Mcl-1, sequence (Q07820 whole entry): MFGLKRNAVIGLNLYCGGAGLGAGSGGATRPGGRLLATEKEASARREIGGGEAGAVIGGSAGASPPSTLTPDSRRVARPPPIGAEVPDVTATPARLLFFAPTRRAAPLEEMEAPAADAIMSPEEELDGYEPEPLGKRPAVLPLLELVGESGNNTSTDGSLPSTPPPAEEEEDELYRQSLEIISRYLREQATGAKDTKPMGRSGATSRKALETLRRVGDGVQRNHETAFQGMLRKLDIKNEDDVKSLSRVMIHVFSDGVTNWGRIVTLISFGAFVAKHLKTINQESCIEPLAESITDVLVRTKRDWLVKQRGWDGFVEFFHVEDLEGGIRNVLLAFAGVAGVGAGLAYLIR

With COC(=O)c1cn(NC(=O)C2CCC(C)CC2)c(=O)c2ccccc12 (centres undefined) the EC50 [1] was > 260 µM (inactive).
With COC(=O)c1ccc(Cl)c(NC(=O)CSc2nnc(-c3ccncc3)o2)c1 the EC50 (Streptococcus) was > 150 µM (not active), the EC50 (Streptokinase A) was > 150 µM (not active) and the EC50 [2] was > 150 µM (not active).
With COc1cc(SC)ccc1C(=O)NCCc1ccccc1 the EC50 (cells [3]) was 18.9 µM (active) and the EC50 (cells [4]) was > 350 µM (not active).
In the case of Cc1ccc(C(=O)O/N=C(\N)c2ccccc2)c(Cl)c1, the EC50 [5] is reported as 1.03 µM (active), the EC50 [6] is reported as < 0.16 µM (active) and the EC50 [7] is reported as 2.42 µM (active).
For CCOC(=S)SCC(=O)N1CCc2cc(OC)c(OC)cc2C1C1C(=O)CC(C)(C)CC1=O (centres undefined), the EC50 [1] was > 260 µM (inactive).
With Cc1nc2cc(Nc3ccncc3)ccc2s1 the EC50 [5] was > 112 µM (not active) and the EC50 [7] was > 112 µM (not active).
For O=S(=O)(c1cc(Cl)ccc1Cl)N1CC2CCCN2c2ccc(C(F)(F)F)cc21 (centres undefined), the EC50 [1] was > 260 µM (inactive).
In the case of CCCCOc1ccc(NC(=O)C(=O)NCCC2=CCCCC2)cc1, the EC50 (BJ [8]) is reported as > 150 µM (not active), the EC50 (BJ [9]) is reported as > 150 µM (inconclusive) and the EC50 [10] is reported as 142 µM (active). The EC50 (BJ [11]) was > 150 µM (not active).
With CCC(C)NCCCOc1c(C)cc(C)cc1Br (centres undefined) the IC50 [12] was 6.63 µM (not active).
For N#CC1=C(N)Oc2cc(N)ccc2C1c1cccc(F)c1 (centres undefined), the EC50 (BJ [8]) was 34 µM (active), the EC50 (BJ [9]) was 14.2 µM (inconclusive) and the EC50 [10] was 16.5 µM (active). The EC50 (BJ [11]) was 10.8 µM (active).
With Cc1cc2ccccn2c1C(=O)c1cccc([N+](=O)[O-])c1 the EC50 (BJ [8]) was > 150 µM (not active), the EC50 (BJ [9]) was > 150 µM (inconclusive) and the EC50 [10] was > 150 µM (inconclusive). The EC50 (BJ [11]) was > 150 µM (not active).
For O=C(Nc1cccc(NC(=O)c2cccnc2Cl)c1)c1ccco1, the EC50 [5] was > 112 µM (not active) and the EC50 [7] was 16.6 µM (active).
For COc1ccc(C=C2c3ccccc3C(=O)c3ccccc32)c(OC)c1, the EC50 (BJ [8]) was 2.33 µM (inconclusive), the EC50 (BJ [9]) was 18.3 µM (inconclusive) and the CC50 (Vero) was < 0.05 µM (active). The EC50 [10] was 2.6 µM (active) and the EC50 (BJ [11]) was 2.8 µM (inconclusive).
With O=C(CC(Sc1ccccc1)c1cccs1)c1ccco1 (centres undefined) the IC50 [13] was > 66 µM (inactive) and the IC50 [14] was > 66 µM (inactive).
In the case of COc1ccc(/N=C2/C(=N\c3ccc(OC)cc3)N(c3ccc(OC)cc3)C(=S)N2C(=O)c2ccc(OC)cc2)cc1, the EC50 [1] is reported as > 260 µM (inactive).
In the case of Cc1cc2oc(=O)cc(CNc3ccccc3F)c2cc1O, the EC50 (Streptococcus) is reported as > 150 µM (not active), the EC50 [15] is reported as 1.81 µM (active) and the EC50 (Streptokinase A) is reported as 51.2 µM (active). For the same molecule, the EC50 [16] was > 60 µM (not active) and the EC50 [2] was 9.59 µM (active).
With CC(C)OC(=O)c1c2nc3ccccc3nc2n2c1nc(O)c1ccccc12 the EC50 (Streptococcus) was 39.6 µM (active), the EC50 (Streptokinase A) was > 150 µM (not active) and the EC50 [2] was 1.24 µM (active).
